Results as given in patent US20080152694A1, “Devices, Systems and Methods for Ophthalmic Drug Delivery” (priority 2006, published 2008).
≈ marks a conversion by molar mass, not a printed value.

Legend:
[1] = Water solubility of gacyclidine forms; type: physicochemical
Text: (§1) An advantage of using solid drug in an implanted device is, in at least some embodiments, the ability to store drug in the device using a smaller volume than might be required if a premixed (or other liquid) form of the drug were used. In some cases, this smaller volume enables implantation of a device containing enough drug to provide (when combined with an appropriate vehicle source) substantially continuous long term therapy. This long term therapy can be over a period of days, weeks, or months. In some cases, long term therapy may extend over several years. One example of a basic crystalline or solid amorphous drug suitable for use in methods according to some embodiments is gacyclidine. For example, it is estimated that 18 mg of solid gacyclidine eroded with an appropriate vehicle will deliver 100 μM drug over 4 years at a flow rate of 20 microliters per hour or less. […] Dissolution of the basic form of gacyclidine in water requires the presence of an acid (e.g., hydrochloric acid or lactic acid) to convert the basic form to the water-soluble acidic form. The concentration of gacyclidine in solution will therefore depend on the amount of acid available to convert the basic form to the acid form. […]

[2] = Stability of gacyclidine forms in the presence of water; type: physicochemical; conditions: body temperature / in the presence of water
Text: as §1

[3] = Dissolution of gacyclidine base pellets in a continuous flow reactor, eluted with Ringer's solution containing hydrochloric acid; type: physicochemical; conditions: for pH of the eluted drug solution: 20 μL/hr, room temperature (23±2° C.)
Method: A drug chamber similar to the one illustrated in FIG. 5 was loaded with 11 pellets of gacyclidine base having a combined mass of 18 mg. This drug-loaded chamber was eluted at a flow rate of 20 μL/hr at room temperature (23±2° C.) using a MiniMed 508 syringe pump (available from Medtronics MiniMed of Northridge, Calif.). The syringe was loaded with 3 mL of Ringer's solution containing 0.05 to 3 mM hydrochloric acid. The eluted volume was collected in PTFE tubing attached to the pump drug capsule assembly, after a 3-D antibacterial filter. The pH of this solution was determined by use of a pH meter equipped with a Calomel electrode. Drug concentration was determined by HPLC.
The highest pH of the eluted drug solution (5.9) was obtained at 0.05 mM hydrochloric acid, and the lowest pH of the eluted drug solution (5.6) was obtained at 3 mM hydrochloric acid. These pH values indicate quantitative conversion of the hydrochloric acid to the drug salt and are consistent with the pH expected for solutions of the hydrochloride salt.

[4] = type: physicochemical; conditions: solid pellets exposed to a continuous stream of vehicle such as Ringer's solution
Method: Triamcinolone acetonide is commercially available as a crystalline solid with very low water solubility. If solid pellets of triamcinolone acetonide are exposed to a continuous stream of a vehicle, such as Ringer's solution, the expected concentration of extracted triamcinolone acetonide in solution should be 40 μM or less. A higher concentration of triamcinolone acetonide can be solubilized by including an amphipathic molecule in the vehicle. Such a pharmaceutically acceptable amphipathic molecule would be polysorbate 80 (e.g., TWEEN 80®). The concentration of triamcinolone acetonide solubilized can be increased above its water solubility, 40 μM, by adding the required amount of amphipathic molecule to the vehicle that will support the desired drug concentration. The invention is not limited to methods implemented through use of triamcinolone acetonide, Ringer's solution or polysorbate 80. Any sparingly soluble drug, pharmaceutically acceptable vehicle and pharmaceutically acceptable amphipathic molecule can be used.

[5] = cited from earlier work

| Structure (SMILES) | water solubility (in words) [1] | stability (in words) [2] | correlation in gacyclidine concentration per hydrochloric acid concentration used for elution ([3]; 0.05 to 3 mM hydrochloric acid in Ringer's solution, drug concentration by HPLC, FIG. 27) | pH of the eluted drug solution ([3]; Ringer's solution with 0.05 mM hydrochloric acid, highest pH) | pH of the eluted drug solution ([3]; Ringer's solution with 3 mM hydrochloric acid, lowest pH) | intercept at zero concentration of hydrochloric acid (gacyclidine concentration) ([3]; linear fit of eluted gacyclidine concentration vs hydrochloric acid concentration, FIG. 27) | expected concentration of extracted triamcinolone acetonide in solution [4] | water solubility [5] |
| --- | --- | --- | --- | --- | --- | --- | --- | --- |
| CC1CCCCC1(c1cccs1)N1CCCCC1 (stereo not shown) [gacyclidine] | sparingly soluble in water | much more stable than its acidic form | 0.976±0.049 | 5.9 | 5.6 | 0.0014 ± 0.0061 mM | – | – |
| C[C@H]1CCCC[C@@]1(c1cccs1)N1CCCCC1.Cl [hydrochloride salt of gacyclidine, gacyclidine hydrochloride] | highly water soluble | unstable at body temperature | – | – | – | – | – | – |
| CC1(C)O[C@@H]2C[C@H]3[C@@H]4CCC5=CC(=O)C=C[C@]5(C)[C@@]4(F)[C@@H](O)C[C@]3(C)[C@]2(C(=O)CO)O1 [triamcinolone acetonide] | – | – | – | – | – | – | ≤ 40 µM | 40 µM (≈ 17.4 µg/mL) |
